Reference: article PMC5732813, “Novel piplartine-containing ruthenium complexes: synthesis, cell growth inhibition, apoptosis induction and ROS production on HCT116 cells” (Oncotarget, 2017)
pIC50: −log10 of the molar value. Several values for one entry are separate records, joined by “and”; a condition that tells them apart may be missing. Equal entries are not always repeated.

Columns and labels:
[1] = system: cancer multicellular spheroids formed from HCT116 cells; assay: 3D multicellular spheroids culture, alamar blue assay; assay type: cell-based, human; settings: Homo sapiens, HCT-116, 72 h
Method: Cell viability was quantified using the alamar blue assay, according to Ahmed et al.. Cells were inserted in 96-well plates for all experiments (7 x 10^4 cells/mL for adherent cells or 3 x 10^5 cells/mL for suspended cells in 100 μL of medium). […] Negative controls received the vehicle that was used for diluting the compounds tested.
HCT116 cells were cultivated in 3D multicellular spheroids. Briefly, 100 μL of a solution of cells (0.5 x 10^6 cells/mL) were inserted in 96-well plate with a cell-repellent surface (Greiner Bio-One, Kremsmünster, Austria) and cultured in RPMI 1640 medium with 10% fetal bovine serum, 2 mM glutamine, 3% matrigel (BD Biosciences, San Jose, CA, EUA) and 50 μg/mL gentamycin at 37°C with 5% CO2. […] Negative control received the vehicle that was used for diluting the compounds tested. In the end of the experiment, morphological changes were examined by light microscopy (Olympus BX41, Tokyo, Japan) using Image-Pro software (Media Cybernetics, Inc. Silver Spring, USA) and the cell viability was determined by alamar blue assay as described above.

HCT116 cells [2] = assay: Internucleosomal DNA fragmentation and cell cycle distribution (DNA content, flow cytometry); assay type: cell-based, human; settings: HCT116, 10 μM, mean ± S.E.M.
Method: Cells were harvested in a permeabilization solution containing 0.1% triton X-100 (Sigma Chemical Co. St Louis, MO, USA), 2 μg/mL propidium iodide (Sigma Chemical Co. St Louis, MO, USA), 0.1% sodium citrate and 100 μg/mL RNAse (Sigma Chemical Co. St Louis, MO, USA) and incubated in the dark for 15 min at room temperature.

HCT116 cells [3] = assay: Gene expression analysis by qPCR array (TaqMan Array Human Molecular Mechanisms of Cancer); assay type: cell-based; settings: HCT116, 12 h, DOX 1 μM, PL 10 μM, 1 2.5 μM, 2 5 μM, negative control RQ = 1.0
Method: HCT116 cells were plated in bottles tissue culture (7x10^4 cells/mL). After 12h of incubation with the complexes, total RNA was isolated from the cells using the RNeasy Plus mini kit (Qiagen, Hilden, Germany) according to the manufacturer’s instructions. The RNA was evaluated by fluorimetry (QuBit™, Life Technologies, Camarillo, CA, EUA). RNA reverse transcription was performed using Superscript VILO™ (Invitrogen Corporation, Waltham, MA, USA). A 96-well plate TaqMan® Array Human Molecular Mechanisms of Cancer (ID 4418806, Applied Biosystems™, Foster City, CA, EUA) was used for the gene expression study by qPCR. The reactions were conducted in the ABI ViiA7 (Applied Biosystems™, Foster City, CA, EUA). The cycle conditions comprised 2 min at 50 °C, 20 s at 95 °C, then 40 cycles of 3 s at 95 °C and 30 s at 60 °C. […] The GAPDH, 18S and HPRT1 genes were used for normalization. All experiments were performed in DNase/RNase free conditions.

COc1cc(/C=C/C(=O)N2CCC=CC2=O)cc(OC)c1OC [Piplartine]
pIC50 [1]: 4.66
DNA content (%) G0/G1 (HCT116 cells [2]; 24h): 22.7 ± 0.6%
DNA content (%) G2/M (HCT116 cells [2]; 24h): 21.5 ± 2.9%
DNA content (%) S (HCT116 cells [2]; 24h): 21.4 ± 2.3%
DNA content (%) Sub-G0/G1 (HCT116 cells [2]; 24h): 20.3%
DNA content (%) Sub-G0/G1 (HCT116 cells [2]; 24h, listed as PL): 20.3 ± 1.8 %
DNA content (%) G0/G1 (HCT116 cells [2]; 48h): 27.0 ± 2.9 %
DNA content (%) G2/M (HCT116 cells [2]; 48h): 21.9 ± 0.9%
DNA content (%) S (HCT116 cells [2]; 48h): 16.4 ± 2.2%
DNA content (%) Sub-G0/G1 (HCT116 cells [2]; 48h): 33.9%
DNA content (%) Sub-G0/G1 (HCT116 cells [2]; 48h, listed as PL): 33.9 ± 5.8 %
RQ ABL1 (HCT116 cells [3]): 1.144
RQ AKT1 (HCT116 cells [3]): 1.285
RQ AKT2 (HCT116 cells [3]): 1.068
RQ APC (HCT116 cells [3]): 1.236
RQ BAX (HCT116 cells [3]): 2.160
RQ BCAR1 (HCT116 cells [3]): 0.705
RQ BCL2L1 (HCT116 cells [3]): 0.822
RQ BCL2L11 (HCT116 cells [3]): 1.536
RQ BID (HCT116 cells [3]): 0.528
RQ BRAF (HCT116 cells [3]): 1.512
RQ CASP8 (HCT116 cells [3]): 0.915
RQ CASP9 (HCT116 cells [3]): 1.065
RQ CCND3 (HCT116 cells [3]): 1.144
RQ CCNE1 (HCT116 cells [3]): 1.418
RQ CDC42 (HCT116 cells [3]): 2.542
RQ CDK2 (HCT116 cells [3]): 0.722
RQ CDK4 (HCT116 cells [3]): 0.873
RQ CDKN1A (HCT116 cells [3]): 2.847
RQ CDKN1B (HCT116 cells [3]): 1.545
RQ CRK (HCT116 cells [3]): 0.381
RQ CTNNB1 (HCT116 cells [3]): 1.026
RQ DVL1 (HCT116 cells [3]): 0.913
RQ E2F1 (HCT116 cells [3]): 0.764
RQ ELK1 (HCT116 cells [3]): 0.625
RQ ERBB2 (HCT116 cells [3]): 1.273
RQ FAS (HCT116 cells [3]): 1.371
RQ FGF2 (HCT116 cells [3]): 0.854
RQ GRB2 (HCT116 cells [3]): 1.219
RQ GSK3B (HCT116 cells [3]): 1.249
RQ GUSB (HCT116 cells [3]): 5.2
RQ HRAS (HCT116 cells [3]): 0.928
RQ ITGB1 (HCT116 cells [3]): 0.784
RQ KRAS (HCT116 cells [3]): 0.133
RQ MAPK1 (HCT116 cells [3]): 1.098
RQ MAPK8 (HCT116 cells [3]): 0.887
RQ MAPK14 (HCT116 cells [3]): 1.009
RQ MDM2 (HCT116 cells [3]): 0.901
RQ MYC (HCT116 cells [3]): 0.271
RQ NFKB1 (HCT116 cells [3]): 0.870
RQ NFKB2 (HCT116 cells [3]): 0.818
RQ NRAS (HCT116 cells [3]): 0.600
RQ PIK3CA (HCT116 cells [3]): 0.910
RQ RB1 (HCT116 cells [3]): 1.314
RQ RELA (HCT116 cells [3]): 1.240
RQ RHOA (HCT116 cells [3]): 0.979
RQ SRC (HCT116 cells [3]): 1.076
RQ TCF3 (HCT116 cells [3]): 0.774
RQ TGFB1 (HCT116 cells [3]): 0.947
RQ TGFBR1 (HCT116 cells [3]): 0.545
RQ VEGFA (HCT116 cells [3]): 1.245
RQ BCL2 (HCT116 cells [3]; listed as PL): 1.1 and 1.049
RQ CCND1 (HCT116 cells [3]; listed as PL): 0.7 and 0.669
RQ CDH1 (HCT116 cells [3]; listed as PL): 2.5 and 2.494
RQ CDKN2A (HCT116 cells [3]; listed as PL): 1.6 and 1.575
RQ CYCS (HCT116 cells [3]; listed as PL): 1.0 and 0.954
RQ EGFR (HCT116 cells [3]; listed as PL): 1.2 and 1.173
RQ FADD (HCT116 cells [3]; listed as PL): 0.4 and 0.369
RQ FN1 (HCT116 cells [3]; listed as PL): 2.0 and 1.952
RQ FOS (HCT116 cells [3]; listed as PL): 31.0 and 30.985
RQ FYN (HCT116 cells [3]; listed as PL): 1.7 and 1.675
RQ FZD1 (HCT116 cells [3]; listed as PL): 1.0 and 0.953
RQ IGF1R (HCT116 cells [3]; listed as PL): 2.1 and 2.082
RQ ITGA2B (HCT116 cells [3]; listed as PL): 3.0 and 2.963
RQ ITGAV (HCT116 cells [3]; listed as PL): 1.0 and 0.993
RQ JUN (HCT116 cells [3]; listed as PL): 3.8 and 3.837
RQ KDR (HCT116 cells [3]; listed as PL): 8.3 and 8.270
RQ MAP2K1 (HCT116 cells [3]; listed as PL): 0.8 and 0.759
RQ MAP3K5 (HCT116 cells [3]; listed as PL): 0.6 and 0.609
RQ MAPK3 (HCT116 cells [3]; listed as PL): 1.7 and 1.726
RQ MAX (HCT116 cells [3]; listed as PL): 3.1 and 3.051
RQ NFKBIA (HCT116 cells [3]; listed as PL): 2.0 and 1.989
RQ PIK3R1 (HCT116 cells [3]; listed as PL): 2.4 and 2.352
RQ PTEN (HCT116 cells [3]; listed as PL): 0.5 and 0.501
RQ PTK2 (HCT116 cells [3]; listed as PL): 0.6 and 0.616
RQ PTK2B (HCT116 cells [3]; listed as PL): 2.3 and 2.265
RQ RAC1 (HCT116 cells [3]; listed as PL): 0.7 and 0.731
RQ RAF1 (HCT116 cells [3]; listed as PL): 0.6 and 0.574
RQ SHC1 (HCT116 cells [3]; listed as PL): 0.2 and 0.243
RQ SMAD4 (HCT116 cells [3]; listed as PL): 0.9 and 0.942
RQ SOS1 (HCT116 cells [3]; listed as PL): 0.9 and 0.851
RQ SPP1 (HCT116 cells [3]; listed as PL): 1.3 and 1.338
RQ TGFBR2 (HCT116 cells [3]; listed as PL): 1.2 and 1.177
RQ TP53 (HCT116 cells [3]; listed as PL): 1.2 and 1.182
